≈ marks a conversion by molar mass, not a printed value.
Assays:
Assay type in all cases: cell-based
[1] = test system: Klebsiella neumoniae ATCC10031; assay: Bactericidal test (MIC), Klebsiella neumoniae ATCC10031; details: (6) Klebsiella neumoniae ATCC10031; read-out: MIC
Source text: (§1) Results of bactericidal tests (MIC, r/ml) on the penicillin derivatives of this invention prepared in the above examples are shown in the following table.

[2] = test system: Pseudomonas aeruginosa GN-315; assay: Bactericidal test (MIC), Pseudomonas aeruginosa GN-315; details: GN315; (15) Pseudomonas aeruginosa GN-315
Source text: as §1

[3] = test system: Pseudomonas aeruginosa 130; assay: Bactericidal test (MIC), Pseudomonas aeruginosa 130; details: (16) Pseudomonas aeruginosa 130
Source text: as §1

Enterobactor cloacae 147 = assay: Bactericidal test (MIC), Enterobactor cloacae 147; details: (7) Enterobactor cloacae 147
Source text: as §1

[4] = test system: Staphylococcus aureus 1248; assay: Bactericidal test (MIC), Staphylococcus aureus 1248; details: (2) Staphylococcus aureus 1248; read-out: MIC
Source text: as §1

Bacillus subtilis = assay: Bactericidal test (MIC), Bacillus subtilis; details: (3) Bacillus subtilis
Source text: as §1

[5] = test system: Staphylococcus aureus 209-p; assay: Bactericidal test (MIC), Staphylococcus aureus 209-p; details: (1) Staphylococcus aureus 209-p
Source text: as §1

[6] = test system: Enterobacter cloacae IF012937; assay: Bactericidal test (MIC), Enterobacter cloacae IF012937; details: (8) Enterobacter cloacae IF012937
Source text: as §1

Rettgerella var. Tid-21 = assay: Bactericidal test (MIC), Rettgerella var. Tid-21; details: (10) Rettgerella var. Tid-21; read-out: MIC
Source text: as §1

[7] = test system: Escherichia Coli NIHJ JC-2; assay: Bactericidal test (MIC), Escherichia Coli NIHJ JC-2; details: NIHJJC2; (5) Escherichia Coli NIHJ JC-2
Source text: as §1

[8] = test system: Pseudomonas aeruginosa IFO-3080; assay: Bactericidal test (MIC), Pseudomonas aeruginosa IFO-3080; details: IFO3080; (12) Pseudomonas aeruginosa IFO-3080; read-out: MIC
Source text: as §1

Morganella var. G-2 = assay: Bactericidal test (MIC), Morganella var. G-2; details: VAR.G2; (9) Morganella var. G-2; read-out: MIC
Source text: as §1

Serratia G-18 = assay: Bactericidal test (MIC), Serratia G-18; details: G18; (11) Serratia G-18; read-out: MIC
Source text: as §1

[9] = test system: Pseudomonas aeruginosa Tid-53; assay: Bactericidal test (MIC), Pseudomonas aeruginosa Tid-53; details: TID53; (14) Pseudomonas aeruginosa Tid-53
Source text: as §1

[10] = test system: Salmonella typhimurium G-20; assay: Bactericidal test (MIC), Salmonella typhimurium G-20; details: Salmonella enterica; (4) Salmonella typhimurium G-20
Source text: as §1

[11] = test system: Pseudomonas aeruginosa 0-37; assay: Bactericidal test (MIC), Pseudomonas aeruginosa 0-37; details: 037; (13) Pseudomonas aeruginosa 0-37
Source text: as §1

Row | SMILES | MIC [1] | MIC [2] | MIC [3] | MIC (Enterobactor cloacae 147) | MIC [4] | MIC (Bacillus subtilis) | MIC [5] | MIC [6] | MIC (Rettgerella var. Tid-21) | MIC [7] | MIC [8] | MIC (Morganella var. G-2) | MIC (Serratia G-18) | MIC [9] | MIC [10] | MIC [11]
1 | COc1ccc2cc(C(=O)N[C@@H](C(=O)N[C@@H]3C(=O)N4[C@@H]3SC(C)(C)[C@@H]4C(=O)O)c3ccccc3)c(=O)oc2c1 [Example 8, D(-)-α-(7-Methoxycoumarin-3-carbonamido)benzylpenicillin] | < 0.4 µg/mL | 3.13 µg/mL (≈ 5.67 µM) | 3.13 µg/mL (≈ 5.67 µM) | 1.56 µg/mL (≈ 2.83 µM) | < 0.4 µg/mL | < 0.4 µg/mL | < 0.4 µg/mL | 6.25 µg/mL (≈ 11.3 µM) | 6.25 µg/mL (≈ 11.3 µM) | < 0.4 µg/mL | 1.56 µg/mL (≈ 2.83 µM) | 3.13 µg/mL (≈ 5.67 µM) | 12.5 µg/mL (≈ 22.7 µM) | 3.13 µg/mL (≈ 5.67 µM) | < 0.4 µg/mL | 25 µg/mL (≈ 45.3 µM)
2 | COC(=O)c1cccc2cc(C(=O)N[C@@H](C(=O)N[C@@H]3C(=O)N4[C@@H]3SC(C)(C)[C@@H]4C(=O)O)c3ccccc3)c(=O)oc12 [Example 14, D(-)-α-(8-Methoxycarbonylcoumarin-3-carbonamido)benzylpenicillin] | 1.56 µg/mL (≈ 2.69 µM) | 12.5 µg/mL (≈ 21.6 µM) | 3.13 µg/mL (≈ 5.4 µM) | 25 µg/mL (≈ 43.1 µM) | 3.13 µg/mL (≈ 5.4 µM) | < 0.4 µg/mL | < 0.4 µg/mL | 6.25 µg/mL (≈ 10.8 µM) | 12.5 µg/mL (≈ 21.6 µM) | < 0.4 µg/mL | 3.13 µg/mL (≈ 5.4 µM) | 1.56 µg/mL (≈ 2.69 µM) | 12.5 µg/mL (≈ 21.6 µM) | 25 µg/mL (≈ 43.1 µM) | < 0.4 µg/mL | 100 µg/mL (≈ 173 µM)
3 | CC(=O)Oc1ccc2cc(C(=O)N[C@@H](C(=O)N[C@@H]3C(=O)N4[C@@H]3SC(C)(C)[C@@H]4C(=O)O)c3ccccc3)c(=O)oc2c1 [Example 12, D(-)-α-(7-Acetoxycoumarin-3-carbonamido)benzylpenicillin] | 12.5 µg/mL (≈ 21.6 µM) | 6.25 µg/mL (≈ 10.8 µM) | 1.56 µg/mL (≈ 2.69 µM) | 12.5 µg/mL (≈ 21.6 µM) | 3.13 µg/mL (≈ 5.4 µM) | < 0.4 µg/mL | < 0.4 µg/mL | 100 µg/mL (≈ 173 µM) | 12.5 µg/mL (≈ 21.6 µM) | < 0.4 µg/mL | 1.56 µg/mL (≈ 2.69 µM) | 25 µg/mL (≈ 43.1 µM) | 100 µg/mL (≈ 173 µM) | 6.25 µg/mL (≈ 10.8 µM) | < 0.4 µg/mL | 50 µg/mL (≈ 86.3 µM)
4 | CC(=O)Oc1ccc2oc(=O)c(C(=O)N[C@@H](C(=O)N[C@@H]3C(=O)N4[C@@H]3SC(C)(C)[C@@H]4C(=O)O)c3ccc(O)cc3)cc2c1 [Example 17, D(-)-α-(6-Acetoxycoumarin-3-carbonamido)-p-hydroxybenzylpenicillin] | 3.13 µg/mL (≈ 5.26 µM) | 3.13 µg/mL (≈ 5.26 µM) | 1.56 µg/mL (≈ 2.62 µM) | 12.5 µg/mL (≈ 21 µM) | 3.13 µg/mL (≈ 5.26 µM) | < 0.4 µg/mL | < 0.4 µg/mL | 12.5 µg/mL (≈ 21 µM) | 3.13 µg/mL (≈ 5.26 µM) | < 0.4 µg/mL | 0.8 µg/mL (≈ 1.34 µM) | 12.5 µg/mL (≈ 21 µM) | 50 µg/mL (≈ 84 µM) | 6.25 µg/mL (≈ 10.5 µM) | < 0.4 µg/mL | 25 µg/mL (≈ 42 µM)
5 | CC1(C)S[C@@H]2[C@H](NC(=O)[C@H](NC(=O)c3cc4cc([N+](=O)[O-])ccc4oc3=O)c3ccccc3)C(=O)N2[C@H]1C(=O)O [Example 13, D(-)-α-(6-Nitrocoumarin-3-carbonamido)benzylpenicillin] | 12.5 µg/mL (≈ 22.1 µM) | 12.5 µg/mL (≈ 22.1 µM) | 6.25 µg/mL (≈ 11 µM) | 25 µg/mL (≈ 44.1 µM) | 6.25 µg/mL (≈ 11 µM) | < 0.4 µg/mL | < 0.4 µg/mL | 12.5 µg/mL (≈ 22.1 µM) | 50 µg/mL (≈ 88.3 µM) | < 0.4 µg/mL | 6.25 µg/mL (≈ 11 µM) | 6.25 µg/mL (≈ 11 µM) | 50 µg/mL (≈ 88.3 µM) | 25 µg/mL (≈ 44.1 µM) | < 0.4 µg/mL | 100 µg/mL (≈ 177 µM)
6 | CC1(C)S[C@@H]2[C@H](NC(=O)[C@H](NC(=O)c3cc4cc(Br)cc(Br)c4oc3=O)c3ccccc3)C(=O)N2[C@H]1C(=O)O [Example 4, D(-)-α-(6,8-Dibromocoumarin-3-carbonamido)benzylpenicillin] | 3.13 µg/mL (≈ 4.61 µM) | 200 µg/mL (≈ 294 µM) | 50 µg/mL (≈ 73.6 µM) | 50 µg/mL (≈ 73.6 µM) | 50 µg/mL (≈ 73.6 µM) | 1.56 µg/mL (≈ 2.3 µM) | 1.56 µg/mL (≈ 2.3 µM) | 200 µg/mL (≈ 294 µM) | 100 µg/mL (≈ 147 µM) | < 0.4 µg/mL | 50 µg/mL (≈ 73.6 µM) | 25 µg/mL (≈ 36.8 µM) | 100 µg/mL (≈ 147 µM) | 200 µg/mL (≈ 294 µM) | 3.13 µg/mL (≈ 4.61 µM) | 200 µg/mL (≈ 294 µM)
7 | CC1(C)S[C@@H]2[C@H](NC(=O)[C@H](NC(=O)c3cc4cc(O)ccc4oc3=O)c3ccccc3)C(=O)N2[C@H]1C(=O)O [Example 10, D(-)-α-(6-Hydroxycoumarin-3-carbonamido)benzylpenicillin] | 0.8 µg/mL (≈ 1.49 µM) | 3.13 µg/mL (≈ 5.82 µM) | 3.13 µg/mL (≈ 5.82 µM) | 3.13 µg/mL (≈ 5.82 µM) | 1.56 µg/mL (≈ 2.9 µM) | < 0.4 µg/mL | < 0.4 µg/mL | 100 µg/mL (≈ 186 µM) | 6.25 µg/mL (≈ 11.6 µM) | < 0.4 µg/mL | 1.56 µg/mL (≈ 2.9 µM) | 6.25 µg/mL (≈ 11.6 µM) | 12.5 µg/mL (≈ 23.3 µM) | 6.25 µg/mL (≈ 11.6 µM) | < 0.4 µg/mL | 25 µg/mL (≈ 46.5 µM)
8 | CC(=O)Nc1ccc2oc(=O)c(C(=O)N[C@@H](C(=O)N[C@@H]3C(=O)N4[C@@H]3SC(C)(C)[C@@H]4C(=O)O)c3ccccc3)cc2c1 [Example 20, D(-)-α-(6-Acetylaminocoumarin-3-carbonamido)benzylpenicillin] | 1.56 µg/mL (≈ 2.7 µM) | 6.25 µg/mL (≈ 10.8 µM) | 1.56 µg/mL (≈ 2.7 µM) | 6.25 µg/mL (≈ 10.8 µM) | 3.13 µg/mL (≈ 5.41 µM) | < 0.4 µg/mL | < 0.4 µg/mL | 6.25 µg/mL (≈ 10.8 µM) | 6.25 µg/mL (≈ 10.8 µM) | < 0.4 µg/mL | 3.13 µg/mL (≈ 5.41 µM) | 6.25 µg/mL (≈ 10.8 µM) | 50 µg/mL (≈ 86.4 µM) | 6.25 µg/mL (≈ 10.8 µM) | < 0.4 µg/mL | 50 µg/mL (≈ 86.4 µM)
9 | COc1ccc2oc(=O)c(C(=O)N[C@@H](C(=O)N[C@@H]3C(=O)N4[C@@H]3SC(C)(C)[C@@H]4C(=O)O)c3ccccc3)cc2c1 [Example 7, D(-)-α-(6-Methoxycoumarin-3-carbonamido)benzylpenicillin] | < 0.4 µg/mL | 3.13 µg/mL (≈ 5.67 µM) | 1.56 µg/mL (≈ 2.83 µM) | 3.13 µg/mL (≈ 5.67 µM) | 1.56 µg/mL (≈ 2.83 µM) | < 0.4 µg/mL | < 0.4 µg/mL | 3.13 µg/mL (≈ 5.67 µM) | 6.25 µg/mL (≈ 11.3 µM) | < 0.4 µg/mL | 1.56 µg/mL (≈ 2.83 µM) | 6.25 µg/mL (≈ 11.3 µM) | 12.5 µg/mL (≈ 22.7 µM) | 3.13 µg/mL (≈ 5.67 µM) | < 0.4 µg/mL | 25 µg/mL (≈ 45.3 µM)
10 | Cc1ccc2oc(=O)c(C(=O)N[C@@H](C(=O)N[C@@H]3C(=O)N4[C@@H]3SC(C)(C)[C@@H]4C(=O)O)c3ccccc3)c(C)c2c1 [Example 5, D(-)-α-(4,6-Dimethylcoumarin-3-carbonamido)benzylpenicillin] | 0.8 µg/mL (≈ 1.46 µM) | 50 µg/mL (≈ 91 µM) | 12.5 µg/mL (≈ 22.7 µM) | 100 µg/mL (≈ 182 µM) | 1.56 µg/mL (≈ 2.84 µM) | < 0.4 µg/mL | < 0.4 µg/mL | 50 µg/mL (≈ 91 µM) | 25 µg/mL (≈ 45.5 µM) | < 0.4 µg/mL | 12.5 µg/mL (≈ 22.7 µM) | 25 µg/mL (≈ 45.5 µM) | 50 µg/mL (≈ 91 µM) | 50 µg/mL (≈ 91 µM) | < 0.4 µg/mL | 200 µg/mL (≈ 364 µM)

Source: patent US4303664A, “Novel penicillin derivatives containing a coumarin nucleus and medicines containing the same” (Teijin Limited, priority 1978, dated 1981)
